# Laboratory results taken from paper PMC13600255 (Journal of the American Chemical Society, 2025).
# Entries after “also recorded” stand apart in the source; their conditions may differ. Like-named read-outs stand apart in the source and are kept apart here.
# Tests used:
# hSERT = hSERT (Homo sapiens, UniProt P31645); format: cell-based; details: for IC50: read-out: IC50, hSERT (uptake inhibition, APP+), hSERT-HEK cells, fluorescent substrate APP+, n = 4
# mouse VMAT2 (mVMAT2) = mouse VMAT2 (mVMAT2) (Mus musculus, UniProt Q8BRU6); assay: FFN200 two-photon imaging of VMAT2 function in acute mouse brain slices; format: cell-based; details: 2 μM for 30 minutes, FFN200 10 μM, dorsal striatum
# SERT [1] = biological target: SERT (Rattus norvegicus, UniProt P31652); assay: [3H]5-HT release from rat brain synaptosomes via SERT; format: biochemical; details: for Emax: read-out: [3H]5-HT Release % Emax via SERT
# hVMAT2 = hVMAT2 (Homo sapiens, UniProt Q05940); assay: FFN206 fluorescent substrate uptake inhibition in hVMAT2-HEK cells; format: cell-based
# VMAT2 = VMAT2 (Rattus norvegicus, UniProt Q01827); assay: [3H]5-HT release from rat brain synaptic vesicles via VMAT2; format: biochemical; details: for [3H]5-HT Release % Emax via VMAT2: rat brain vesicular fraction, 5-HT control set as Emax = 100%; for Emax: read-out: [3H]5-HT Release % Emax via VMAT2; for Concentration at which [3H]5-HT release exceeds Emax of 30%: rat brain synaptic vesicles
# rat SERT (rSERT) = rat SERT (rSERT) (Rattus norvegicus, UniProt P31652); assay: [3H]5-HT uptake inhibition in rat brain synaptosomes; format: biochemical; details: for IC50: rat brain synaptosomes
# rat VMAT2 (rVMAT2) = rat VMAT2 (rVMAT2) (Rattus norvegicus, UniProt Q01827); assay: [3H]5-HT uptake inhibition in rat brain synaptic vesicular fraction; format: biochemical
# SERT [2] = biological target: SERT (Mus musculus, UniProt Q60857); assay: SERTlight two-photon imaging of SERT function in acute mouse brain slices; format: cell-based
# hOCT2 = biological target: T1, hOCT2 (Homo sapiens, UniProt O15244); assay: ASP+ fluorescent substrate uptake inhibition at OCT2; format: cell-based
# T1 sequence (O15244 1-555): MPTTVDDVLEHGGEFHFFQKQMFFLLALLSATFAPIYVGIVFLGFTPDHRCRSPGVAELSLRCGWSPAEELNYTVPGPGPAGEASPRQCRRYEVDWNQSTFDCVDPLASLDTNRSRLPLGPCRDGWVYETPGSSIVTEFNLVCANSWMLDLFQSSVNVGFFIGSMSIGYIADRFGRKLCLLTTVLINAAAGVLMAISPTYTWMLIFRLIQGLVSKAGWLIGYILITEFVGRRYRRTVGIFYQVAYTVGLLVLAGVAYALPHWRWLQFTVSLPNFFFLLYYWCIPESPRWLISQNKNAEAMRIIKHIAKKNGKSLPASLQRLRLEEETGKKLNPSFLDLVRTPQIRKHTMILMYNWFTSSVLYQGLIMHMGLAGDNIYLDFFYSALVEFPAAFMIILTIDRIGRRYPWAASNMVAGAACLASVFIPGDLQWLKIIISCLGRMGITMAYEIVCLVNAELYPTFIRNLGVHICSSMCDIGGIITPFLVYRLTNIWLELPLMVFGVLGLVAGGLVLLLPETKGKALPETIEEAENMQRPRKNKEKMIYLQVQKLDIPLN
# humans = details: therapeutic doses, treated for dyskinesias; cited from earlier work
# mice [3] = assay: Catalepsy bar test in mice; format: in vivo, mouse
# mice [4] = assay: Open field locomotor activity test in mice; format: in vivo, mouse; details: s.c.; for Locomotor activity / sedation in open field test: dose-response
# [5] = Pharmacokinetics in mice, estimated free drug concentration in brain; format: in vivo, mouse; details: mice, 50 mg/kg, s.c.
# NET = details: read-out: EC50, NET (release); synaptosomes; cited from earlier work
# [6] = rat brain synaptosomes, n = 3, active releaser: EC50 < 10 μM and Emax > 30%
# [7] = read-out: IC50, hVMAT2 (uptake inhibition, FFN206), hVMAT2-HEK cells, fluorescent substrate FFN206, n = 4
# [8] = read-out: [3H]5-HT Release EC50 ± SD via VMAT2
# [9] = read-out: Uptake Inhibition at SERT IC50, [3H]5-HT (rSERT)
# [10] = read-out: [3H]5-HT Uptake Inhibition IC50 ± SD, SERT, n = 3
# [11] = read-out: Uptake Inhibition at VMAT2 IC50, [3H]5-HT (rVMAT2), rat brain synaptic vesicles
# Chain of SERT (Mus musculus, UniProt Q60857) (Q60857 whole entry): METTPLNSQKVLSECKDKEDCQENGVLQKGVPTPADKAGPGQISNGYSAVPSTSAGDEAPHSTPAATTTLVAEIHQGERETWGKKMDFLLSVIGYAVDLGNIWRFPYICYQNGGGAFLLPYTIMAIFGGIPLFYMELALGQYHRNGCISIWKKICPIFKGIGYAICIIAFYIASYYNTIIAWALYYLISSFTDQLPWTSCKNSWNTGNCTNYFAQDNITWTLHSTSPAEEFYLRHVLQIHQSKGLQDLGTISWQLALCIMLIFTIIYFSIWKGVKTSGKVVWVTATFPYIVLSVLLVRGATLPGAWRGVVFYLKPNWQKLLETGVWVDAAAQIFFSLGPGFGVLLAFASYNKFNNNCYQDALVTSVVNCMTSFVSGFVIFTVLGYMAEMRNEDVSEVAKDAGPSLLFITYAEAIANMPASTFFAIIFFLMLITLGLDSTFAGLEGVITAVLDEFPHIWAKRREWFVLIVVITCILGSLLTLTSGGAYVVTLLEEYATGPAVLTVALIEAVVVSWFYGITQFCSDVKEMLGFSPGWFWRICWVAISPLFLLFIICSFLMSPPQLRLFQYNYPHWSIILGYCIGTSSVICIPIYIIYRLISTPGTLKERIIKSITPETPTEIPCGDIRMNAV
# Chain of VMAT2 (Q01827 whole entry): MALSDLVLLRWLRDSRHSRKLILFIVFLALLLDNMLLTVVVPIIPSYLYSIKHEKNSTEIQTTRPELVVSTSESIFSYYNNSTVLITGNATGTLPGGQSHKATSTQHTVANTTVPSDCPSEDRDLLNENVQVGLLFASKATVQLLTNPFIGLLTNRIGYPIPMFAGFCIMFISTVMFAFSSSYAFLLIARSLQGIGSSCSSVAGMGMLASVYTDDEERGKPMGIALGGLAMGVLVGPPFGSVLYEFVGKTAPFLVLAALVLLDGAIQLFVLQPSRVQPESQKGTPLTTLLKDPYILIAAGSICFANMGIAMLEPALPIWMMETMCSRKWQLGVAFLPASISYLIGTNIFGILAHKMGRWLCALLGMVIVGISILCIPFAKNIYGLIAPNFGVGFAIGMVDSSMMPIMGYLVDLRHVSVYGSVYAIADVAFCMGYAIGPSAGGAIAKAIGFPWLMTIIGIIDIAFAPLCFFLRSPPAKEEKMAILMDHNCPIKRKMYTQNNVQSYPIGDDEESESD
# Chain of rat VMAT2 (rVMAT2) (Q01827 whole entry): as above
# Chain of mouse VMAT2 (mVMAT2) (Q8BRU6 whole entry): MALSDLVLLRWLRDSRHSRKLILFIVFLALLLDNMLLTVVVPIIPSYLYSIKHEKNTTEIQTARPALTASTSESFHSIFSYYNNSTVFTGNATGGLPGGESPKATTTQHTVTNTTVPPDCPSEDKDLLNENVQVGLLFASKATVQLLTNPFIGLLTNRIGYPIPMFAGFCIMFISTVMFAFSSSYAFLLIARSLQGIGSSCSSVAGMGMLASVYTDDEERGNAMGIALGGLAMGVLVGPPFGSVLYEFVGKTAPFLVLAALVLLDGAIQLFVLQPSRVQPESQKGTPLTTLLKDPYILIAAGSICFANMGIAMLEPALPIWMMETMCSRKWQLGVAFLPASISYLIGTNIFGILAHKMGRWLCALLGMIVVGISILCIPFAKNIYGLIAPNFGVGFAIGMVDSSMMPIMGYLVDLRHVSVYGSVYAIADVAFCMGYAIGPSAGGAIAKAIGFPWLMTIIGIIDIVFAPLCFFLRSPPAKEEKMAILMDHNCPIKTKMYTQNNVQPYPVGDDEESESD
# Chain of hSERT (P31645 whole entry): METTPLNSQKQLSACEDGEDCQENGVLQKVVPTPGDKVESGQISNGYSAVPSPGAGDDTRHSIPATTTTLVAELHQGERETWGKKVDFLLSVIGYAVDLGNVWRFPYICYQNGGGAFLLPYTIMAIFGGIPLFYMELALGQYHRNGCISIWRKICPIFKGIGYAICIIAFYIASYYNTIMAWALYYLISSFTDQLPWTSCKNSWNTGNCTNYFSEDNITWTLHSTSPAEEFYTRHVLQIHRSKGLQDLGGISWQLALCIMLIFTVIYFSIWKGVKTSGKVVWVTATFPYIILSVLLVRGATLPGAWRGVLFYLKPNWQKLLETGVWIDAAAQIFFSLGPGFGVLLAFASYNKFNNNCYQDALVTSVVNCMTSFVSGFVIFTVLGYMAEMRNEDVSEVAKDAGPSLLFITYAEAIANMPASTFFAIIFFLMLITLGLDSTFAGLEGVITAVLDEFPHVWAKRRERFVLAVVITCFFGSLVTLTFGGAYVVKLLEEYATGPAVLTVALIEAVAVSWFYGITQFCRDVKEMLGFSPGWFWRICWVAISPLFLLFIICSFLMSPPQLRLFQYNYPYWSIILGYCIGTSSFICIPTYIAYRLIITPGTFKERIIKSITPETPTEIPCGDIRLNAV
# Chain of hVMAT2 (Q05940 whole entry): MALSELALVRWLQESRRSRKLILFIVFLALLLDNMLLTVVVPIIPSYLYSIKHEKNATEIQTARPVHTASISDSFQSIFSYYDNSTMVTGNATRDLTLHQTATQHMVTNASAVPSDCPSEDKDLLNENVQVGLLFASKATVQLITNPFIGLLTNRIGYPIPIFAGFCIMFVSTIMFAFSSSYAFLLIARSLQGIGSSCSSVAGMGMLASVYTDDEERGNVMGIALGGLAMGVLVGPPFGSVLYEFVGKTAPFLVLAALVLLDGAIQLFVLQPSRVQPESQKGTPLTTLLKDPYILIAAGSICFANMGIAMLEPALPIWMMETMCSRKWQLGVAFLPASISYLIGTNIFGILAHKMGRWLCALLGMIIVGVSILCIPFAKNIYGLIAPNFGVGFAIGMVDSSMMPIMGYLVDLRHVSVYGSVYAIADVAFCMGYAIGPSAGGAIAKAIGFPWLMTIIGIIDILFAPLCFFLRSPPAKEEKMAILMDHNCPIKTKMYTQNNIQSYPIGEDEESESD
# Chain of SERT (Rattus norvegicus, UniProt P31652) (P31652 whole entry): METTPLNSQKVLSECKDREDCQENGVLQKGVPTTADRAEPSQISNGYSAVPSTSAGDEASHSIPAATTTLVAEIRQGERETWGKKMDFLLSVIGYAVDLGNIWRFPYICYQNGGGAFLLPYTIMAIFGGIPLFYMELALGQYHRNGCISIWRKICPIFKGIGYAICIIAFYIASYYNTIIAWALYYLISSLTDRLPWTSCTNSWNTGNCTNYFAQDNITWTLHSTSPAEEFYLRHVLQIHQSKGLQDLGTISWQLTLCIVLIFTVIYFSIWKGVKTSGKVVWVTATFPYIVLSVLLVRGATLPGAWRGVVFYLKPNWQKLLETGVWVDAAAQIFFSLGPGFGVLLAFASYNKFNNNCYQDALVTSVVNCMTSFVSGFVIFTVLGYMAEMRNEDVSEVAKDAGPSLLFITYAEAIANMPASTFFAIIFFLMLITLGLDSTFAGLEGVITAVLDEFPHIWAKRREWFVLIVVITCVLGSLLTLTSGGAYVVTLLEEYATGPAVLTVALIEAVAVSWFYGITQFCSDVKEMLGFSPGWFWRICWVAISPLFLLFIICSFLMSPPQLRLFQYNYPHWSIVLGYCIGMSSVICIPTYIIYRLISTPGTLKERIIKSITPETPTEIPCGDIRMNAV
# Chain of rat SERT (rSERT) (P31652 whole entry): as above
compound,measurement,setting,value
"CN(C)CCCN1c2ccccc2CCc2ccccc21 [imipramine, reference compound]",Selectivity for SERT over VMAT2,hSERT,> 100 fold
"COc1cc2c(cc1OC)[C@H]1C[C@@H](O)[C@H](CC(C)C)CN1CC2 [DTBZ, dihydrotetrabenazine, reference compound]",Effect on FFN200 uptake / punctate labeling,mouse VMAT2 (mVMAT2),attenuated; also recorded: inhibited the labeling pattern
CCC1CC2CC3c4c(c5cc(O)ccc5n4C)CCN(C2)C13 (stereo not shown) [N-methyl-noribogaine],[3H]5-HT Release % Emax via SERT,"SERT [1]; rat brain synaptosomes, n = 3",< 30%
same,[3H]5-HT Release EC50 ± SD via SERT,SERT [1]; [6],inactive
same,IC50,hVMAT2; [7],170 nM
same,IC50,hSERT,59 nM
same,[3H]5-HT Release % Emax via VMAT2,VMAT2,32%
same,EC50,VMAT2; [8],219 ± 36 nM
same,IC50,rat SERT (rSERT); [9],14 nM
same,IC50,rat SERT (rSERT); [10],13.6 ± 1.2 nM
same,IC50,rat VMAT2 (rVMAT2); [11],239 nM
"COC(=O)[C@H]1[C@H]2C[C@@H]3c4[nH]c5cc(OC)ccc5c4CCN3C[C@H]2C[C@@H](OC(=O)c2cc(OC)c(OC)c(OC)c2)[C@@H]1OC [reserpine, reference compound]",Emax,VMAT2,< 30%
CC[C@H]1C[C@@H]2C[C@H]3c4[nH]c5ccc(C#N)cc5c4CCN(C2)[C@@H]13 [5-cyano-ibogamine],Effect on FFN200 uptake / punctate labeling,mouse VMAT2 (mVMAT2),no inhibitory effects; also recorded: had no effect on labeling pattern
same,Effect on SERTlight labeling of 5-HT axons,"SERT [2]; 0.2 μM (200 nM), dorsal striatum",Marked labeling inhibition; also recorded: marked suppression of SERTlight fluorescent labeling
same,Effect on SERTlight labeling of 5-HT axons,"SERT [2]; 2 μM for 30 minutes, SERTlight 10 μM, SNpr, DS, SSp2/3",ablated SERTlight probe uptake; also recorded: fully inhibited SERTlight label
same,[3H]5-HT Release % Emax via SERT,"SERT [1]; rat brain synaptosomes, n = 3",< 30%
same,[3H]5-HT Release EC50 ± SD via SERT,SERT [1]; [6],inactive
same,IC50,hVMAT2; [7],3340 nM
same,IC50,hSERT,26 nM
same,Concentration at which [3H]5-HT release exceeds Emax of 30%,VMAT2,> 10 µM
same,[3H]5-HT Release % Emax via VMAT2,VMAT2,< 30%
same,IC50,rat SERT (rSERT); [9],65 nM
same,IC50,rat SERT (rSERT); [10],65.2 ± 5.4 nM
same,IC50,rat VMAT2 (rVMAT2); [11],9620 nM
"CC(N)Cc1ccccc1 (stereo not shown) [amphetamine, reference compound]",[3H]5-HT release from preloaded synaptosomes (qualitative),SERT [1]; rat brain synaptosomes,robust [^3H]5-HT release
same,Emax,SERT [1],91%
same,Emax,VMAT2,98%
N-methyl-5-cyano-ibogamine,[3H]5-HT Release % Emax via SERT,"SERT [1]; rat brain synaptosomes, n = 3",< 30%
same,[3H]5-HT Release EC50 ± SD via SERT,SERT [1]; [6],inactive
same,IC50,hVMAT2; [7],440 nM
same,IC50,hSERT,5 nM
same,Concentration at which [3H]5-HT release exceeds Emax of 30%,VMAT2,> 10 µM
same,[3H]5-HT Release % Emax via VMAT2,VMAT2,< 30%
same,IC50,rat SERT (rSERT); [9],10 nM
same,IC50,rat SERT (rSERT); [10],9.8 ± 0.8 nM
same,IC50,rat VMAT2 (rVMAT2); [11],1320 nM
CC[C@H]1C[C@@H]2C[C@H]3c4[nH]c5ccccc5c4CCN(C2)[C@@H]13 [ibogamine],IC50,hOCT2,2000 nM
same,[3H]5-HT Release EC50 ± SD via SERT,SERT [1],inactive
same,[3H]5-HT release from preloaded synaptosomes (qualitative),SERT [1]; rat brain synaptosomes,No [^3H]5-HT release was observed
same,Emax,SERT [1],< 30%
same,IC50,hVMAT2,3010 nM
same,[3H]5-HT Release EC50 ± SD via VMAT2,VMAT2,inactive
same,Concentration at which [3H]5-HT release exceeds Emax of 30%,VMAT2,> 10 µM
same,Emax,VMAT2,< 30%
same,IC50,"rat SERT (rSERT); Uptake Inhibition at SERT IC50, [3H]5-HT (rSERT)",554 nM
same,IC50,"rat SERT (rSERT); [3H]5-HT Uptake Inhibition IC50 ± SD, SERT, n = 3",554 ± 49 nM
same,IC50,rat VMAT2 (rVMAT2),> 10000 nM
"NCCc1c[nH]c2ccc(O)cc12 [serotonin (5-HT), serotonin, reference compound]",EC50,VMAT2,585 ± 129 nM
same,Emax,VMAT2,113%
"COc1cc2c(cc1OC)C1CC(=O)C(CC(C)C)CN1CC2 (stereo not shown) [tetrabenazine (TBZ), tetrabenazine, reference compound]",Emax,VMAT2,< 30%
same,"Parkinsonism as an adverse effect, share of subjects",humans,15–24%
same,Catalepsy in bar test,"mice [3]; mice, s.c., dose-response",catalepsy in the bar test in a dose-dependent manner; also recorded: catalepsy can be readily induced
same,Locomotor activity / sedation in open field test,mice [4],diminished locomotor activity; also recorded: sedation in the open field test
CC[C@H]1C[C@@H]2C[C@H]3c4c(c5cc(OC)ccc5n4C)CCN(C2)[C@@H]13 [N-methyl-ibogaine],IC50,"hOCT2; read-out: IC50, hOCT2, ASP+ fluorescent substrate",2300 nM
CCC1CC2CC3c4c(c5cc(O)ccc5n4CC)CCN(C2)C13 (stereo not shown) [N-ethyl-noribogaine],[3H]5-HT Release % Emax via SERT,"SERT [1]; rat brain synaptosomes, n = 3",< 30%
same,[3H]5-HT Release EC50 ± SD via SERT,SERT [1]; [6],inactive
same,IC50,hVMAT2; [7],70 nM
same,IC50,hSERT,1860 nM
same,"Cmax, estimated free drug in the brain",[5],11 µM
same,[3H]5-HT Release % Emax via VMAT2,VMAT2,31%
same,EC50,VMAT2; [8],711 ± 254 nM
same,"Potency in synaptosomes ([3H]5-HT, rSERT) relative to transfected cells (hSERT)",rat SERT (rSERT),more than 20 fold
same,IC50,rat SERT (rSERT); [9],80 nM
same,IC50,rat SERT (rSERT); [10],80.1 ± 7.2 nM
same,IC50,rat VMAT2 (rVMAT2); [11],54 nM
same,Catalepsy in bar test,"mice [3]; mice, 50 mg/kg, s.c., 60-minute mark",catalepsy was induced
same,Catalepsy in bar test,"mice [3]; mice, s.c., dose-response",induces catalepsy
same,Catalepsy in bar test,"mice [3]; mouse, in vivo",lack of catalepsy; also recorded: did not induce catalepsy
same,Locomotion in open field test,mice [4]; 30 mg/kg,completely suppressed locomotion
same,Locomotor activity / sedation in open field test,mice [4],suppresses locomotor activity
CCC1CC2CC3c4oc5ccc(O)cc5c4CCN(C2)C13 (stereo not shown) [oxa-noribogaine],IC50,hVMAT2; [7],670 nM
same,IC50,hSERT,900 nM
CCOc1ccc2[nH]c3c(c2c1)CCN1CC2CC(CC)C1C3C2 (stereo not shown) [5-ethoxyibogamine],Selectivity hVMAT2 over hSERT,"hVMAT2; ratio of IC50 values, cell-based fluorometry",more than 100 fold
same,IC50,hVMAT2; [7],80 nM
same,IC50,hSERT,9030 nM
